According to ChEMBL document CHEMBL1201862, “PubChem BioAssay data set” (2004):
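1) Cells in 96-well plates. 2) Compound, 48 h, 5 concentrations. 3) Linear interpolation between surrounding doses. 4) Unreached endpoint = highest concentration. The concentration for 50% growth inhibition is given as GI50.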 Calls of active or inactive are those of the source. No stated cut-off is given here; in the data, active = GI50 up to about 1.1 µM and inactive = higher.

Assays:
Experiment in all cases: NCI tumour cell line growth inhibition, 48 h
SF-268 = tested on: SF-268
MDA-N = tested on: MDA-N
UACC-62 = tested on: UACC-62
SK-MEL-2 = tested on: SK-MEL-2
IGROV-1 = tested on: IGROV-1
UO-31 = tested on: UO-31
COLO 205 = tested on: COLO 205
SF-295 = tested on: SF-295
HT-29 = tested on: HT-29
EKVX = tested on: EKVX
SNB-75 = tested on: SNB-75
HOP-62 = tested on: HOP-62
OVCAR-3 = tested on: OVCAR-3
A549 = tested on: A549
SNB-19 = tested on: SNB-19
PC-3 = tested on: PC-3
NCI-H460 = tested on: NCI-H460
KM12 = tested on: KM12
SW-620 = tested on: SW-620
A498 = tested on: A498

| SMILES | GI50 (SF-268) | GI50 (MDA-N) | GI50 (UACC-62) | GI50 (SK-MEL-2) | GI50 (IGROV-1) | GI50 (UO-31) | GI50 (COLO 205) | GI50 (SF-295) | GI50 (HT-29) | GI50 (EKVX) | GI50 (SNB-75) | GI50 (HOP-62) | GI50 (OVCAR-3) | GI50 (A549) | GI50 (SNB-19) | GI50 (PC-3) | GI50 (NCI-H460) | GI50 (KM12) | GI50 (SW-620) | GI50 (A498) |
| --- | --- | --- | --- | --- | --- | --- | --- | --- | --- | --- | --- | --- | --- | --- | --- | --- | --- | --- | --- | --- |
| Nc1ncn(C/C=C/c2ccccc2)c2ncnc1-2 | > 100 µM (inactive) | > 100 µM (inactive) | > 100 µM (inactive) | > 100 µM (inactive) | > 100 µM (inactive) | > 100 µM (inactive) | > 100 µM (inactive) | > 100 µM (inactive) | 50.9 µM (inactive) | 32.4 µM (inactive) | 70.3 µM (inactive) | > 100 µM (inactive) | > 100 µM (inactive) | > 100 µM (inactive) | > 100 µM (inactive) | > 100 µM (inactive) | > 100 µM (inactive) | > 100 µM (inactive) | > 100 µM (inactive) | 75.3 µM (inactive) |
| Cc1cc(S(=O)(=O)/N=C(\NN)Nc2ccc(Cl)cc2)c(S)cc1Cl | 15.6 µM (inactive) | 8.87 µM (inactive) | 1.5 µM (inactive) | 19.2 µM (inactive) | 3.54 µM (inactive) | 5.58 µM (inactive) | 13.4 µM (inactive) |  | 16.1 µM (inactive) | 5.16 µM (inactive) | 6.49 µM (inactive) | 10.8 µM (inactive) | 12.4 µM (inactive) | 11 µM (inactive) | 11.5 µM (inactive) | 21.2 µM (inactive) | 4.46 µM (inactive) | 2.85 µM (inactive) | 11.1 µM (inactive) | 17.1 µM (inactive) |
| Oc1cc(-c2cccc(F)c2)nc2cc3c(cc12)OCO3 | 0.115 µM (active) | 0.0111 µM (active) | 0.0345 µM (active) | 0.0308 µM (active) | 0.102 µM (active) | 0.124 µM (active) | 0.0743 µM (active) | 0.102 µM (active) |  | 6.56 µM (inactive) | 0.0334 µM (active) | 0.165 µM (active) | 0.0222 µM (active) | 0.119 µM (active) | 0.124 µM (active) | 0.0473 µM (active) | 0.07 µM (active) | 0.0341 µM (active) | 0.0356 µM (active) | 0.157 µM (active) |
| CCOC(=O)[C@@H]1[C@@H](c2ccccc2)N(C)O[C@@]1(c1ccccc1)C(F)(F)F | > 100 µM (inactive) | 52.8 µM (inactive) | 43.5 µM (inactive) | 25.5 µM (inactive) | > 100 µM (inactive) | > 100 µM (inactive) | > 100 µM (inactive) | 64.6 µM (inactive) | 18.7 µM (inactive) | 86.3 µM (inactive) | > 100 µM (inactive) | > 100 µM (inactive) | 97.1 µM (inactive) | 47.3 µM (inactive) | > 100 µM (inactive) | 58.5 µM (inactive) |  | 58.9 µM (inactive) | 43.7 µM (inactive) | > 100 µM (inactive) |
| [N-]=[N+]=Nc1nc2ccccc2c(N=[N+]=[N-])c1Cl | > 100 µM (inactive) | > 100 µM (inactive) | 98.4 µM (inactive) | > 100 µM (inactive) | > 100 µM (inactive) | > 100 µM (inactive) | > 100 µM (inactive) | > 100 µM (inactive) | > 100 µM (inactive) |  | 24.9 µM (inactive) | 79.1 µM (inactive) | > 100 µM (inactive) | > 100 µM (inactive) | > 100 µM (inactive) | > 100 µM (inactive) | > 100 µM (inactive) | > 100 µM (inactive) | > 100 µM (inactive) | 6.81 µM (inactive) |
| c1nncn1C12C3C4C5C3C1C5C42 (stereo not drawn) | > 100 µM (inactive) | > 100 µM (inactive) |  | > 100 µM (inactive) | > 100 µM (inactive) |  | > 100 µM (inactive) | > 100 µM (inactive) | > 100 µM (inactive) | > 100 µM (inactive) | > 100 µM (inactive) | > 100 µM (inactive) |  | > 100 µM (inactive) | > 100 µM (inactive) | > 100 µM (inactive) | > 100 µM (inactive) | > 100 µM (inactive) | > 100 µM (inactive) | > 100 µM (inactive) |
| COC1=CC(=O)c2c(cc(COP(=O)(N(C)CCBr)N(C)CCBr)n2C)C1=O | 0.183 µM (active) | 1.21 µM (inactive) | 0.414 µM (active) | 1.89 µM (inactive) | 2.31 µM (inactive) |  | 0.865 µM (active) | < 0.0164 µM (active) | 0.0413 µM (active) | 2.03 µM (inactive) | 0.102 µM (active) | < 0.0322 µM (active) | 2.16 µM (inactive) | 0.185 µM (active) | 0.798 µM (active) | 6.82 µM (inactive) | 0.0582 µM (active) | 4.04 µM (inactive) | 0.187 µM (active) | 1.97 µM (inactive) |
| O=P(O)(O)c1ccccc1Oc1ccccc1 | > 100 µM (inactive) | > 100 µM (inactive) | > 100 µM (inactive) | > 100 µM (inactive) | > 100 µM (inactive) | > 100 µM (inactive) | > 100 µM (inactive) | > 100 µM (inactive) |  | > 100 µM (inactive) | 30.3 µM (inactive) | > 100 µM (inactive) | > 100 µM (inactive) | > 100 µM (inactive) | > 100 µM (inactive) | > 100 µM (inactive) | > 100 µM (inactive) | > 100 µM (inactive) | > 100 µM (inactive) | 3.95 µM (inactive) |
| CCCNC(=O)N1CC(CN2CCN(c3ccccc3)CC2)O/C1=N/C(=O)Nc1ccccc1 (stereo not drawn) | > 100 µM (inactive) | > 100 µM (inactive) | 99.3 µM (inactive) | 45.3 µM (inactive) | > 100 µM (inactive) | 30.5 µM (inactive) | 33.3 µM (inactive) | > 100 µM (inactive) | 68.7 µM (inactive) | 71.8 µM (inactive) | 76.2 µM (inactive) | > 100 µM (inactive) |  | 63.4 µM (inactive) | > 100 µM (inactive) | 45.5 µM (inactive) | > 100 µM (inactive) | > 100 µM (inactive) | > 100 µM (inactive) | > 100 µM (inactive) |
| CCOC(=O)NN(C(=O)OCC)c1c(C)cc(C)cc1C | > 100 µM (inactive) | > 100 µM (inactive) | > 100 µM (inactive) | > 100 µM (inactive) | 64.4 µM (inactive) | 98.9 µM (inactive) | > 100 µM (inactive) |  | > 100 µM (inactive) | > 100 µM (inactive) | > 100 µM (inactive) |  | > 100 µM (inactive) | > 100 µM (inactive) | > 100 µM (inactive) | > 100 µM (inactive) | > 100 µM (inactive) | > 100 µM (inactive) | > 100 µM (inactive) | > 100 µM (inactive) |
| c1ccc(-c2csc3c2-n2cccc2C3N2CCCC2)cc1 (stereo not drawn) | 13.9 µM (inactive) | 34.4 µM (inactive) |  | > 100 µM (inactive) | 21.1 µM (inactive) | > 100 µM (inactive) | > 10 µM (inactive) | 23.8 µM (inactive) | 28.2 µM (inactive) | 13.8 µM (inactive) | 14.9 µM (inactive) | 26.5 µM (inactive) | 6.9 µM (inactive) | 26.4 µM (inactive) | 19.6 µM (inactive) | 32.7 µM (inactive) | 44.4 µM (inactive) | 30.7 µM (inactive) | 44.2 µM (inactive) | 76 µM (inactive) |
| CCN1c2nc3ccccc3nc2N(CC)c2nc3ccccc3nc21 | 32.1 µM (inactive) | 57.8 µM (inactive) | 39.2 µM (inactive) | > 100 µM (inactive) | 23.2 µM (inactive) | 96.6 µM (inactive) | 82.2 µM (inactive) | 39.7 µM (inactive) | 39.5 µM (inactive) | 19.1 µM (inactive) | > 10 µM (inactive) |  | 41.2 µM (inactive) | 88.7 µM (inactive) | > 100 µM (inactive) | 61.5 µM (inactive) | 32.9 µM (inactive) | 39.5 µM (inactive) | 30.7 µM (inactive) | 57.3 µM (inactive) |
| Fc1ccccc1C1SCC2=Nc3ccccc3CN21 (stereo not drawn) | 54.1 µM (inactive) | > 100 µM (inactive) | 99.8 µM (inactive) | 43.6 µM (inactive) |  | > 100 µM (inactive) | > 100 µM (inactive) | 70.8 µM (inactive) | > 100 µM (inactive) | > 100 µM (inactive) | > 100 µM (inactive) | 67.1 µM (inactive) | 97.1 µM (inactive) | > 100 µM (inactive) | > 100 µM (inactive) | > 100 µM (inactive) | > 100 µM (inactive) | > 100 µM (inactive) | > 100 µM (inactive) | > 100 µM (inactive) |
| O=C(CN1CCOCC1)NC1=Nc2ncccc2C(=O)NN1 | > 10 µM (inactive) | > 10 µM (inactive) | > 10 µM (inactive) | > 10 µM (inactive) | > 10 µM (inactive) | > 10 µM (inactive) |  | > 10 µM (inactive) | > 10 µM (inactive) | > 10 µM (inactive) | > 10 µM (inactive) | > 10 µM (inactive) | > 10 µM (inactive) | > 10 µM (inactive) | > 10 µM (inactive) | > 10 µM (inactive) | > 10 µM (inactive) | > 10 µM (inactive) | > 10 µM (inactive) | > 10 µM (inactive) |
| C[N+](C)([O-])CCC=C1c2ccccc2CCc2ccccc21 | 21.5 µM (inactive) | 19.5 µM (inactive) | 17.1 µM (inactive) | 18.5 µM (inactive) | 17.1 µM (inactive) |  | 20 µM (inactive) | 27.5 µM (inactive) | 22.3 µM (inactive) | 24.8 µM (inactive) | 29.3 µM (inactive) | 15.6 µM (inactive) | 23.6 µM (inactive) | 28.1 µM (inactive) | 35.6 µM (inactive) | 24.7 µM (inactive) | 31.3 µM (inactive) | 18.1 µM (inactive) | 21.8 µM (inactive) | 21.5 µM (inactive) |
